According to ChEMBL document CHEMBL3603838, “Guanidinium compounds with sub-micromolar activities against Mycobacterium tuberculosis. Synthesis, characterization and biological evaluations” (Bioorg Med Chem, 2015):
Values after ≈ are worked out from the molar mass of the structure shown.

What was measured:
[1] = Selectivity index, ratio of CC50 for human MRC5 cells to MIC for isoniazid-resistant Mycobacterium tuberculosis MYC5165; assay type: toxicity, cell-based; settings: read-out: Selectivity Index
[2] = system: Mycobacterium tuberculosis; test: Antimycobacterial activity against isoniazid-resistant Mycobacterium tuberculosis MYC5165 after 6 days by MTT assay; assay type: functional, organism-based; settings: MYC5165, 144 h
[3] = system: Mycobacterium tuberculosis; test: Ratio of isoniazid MIC to compound MIC for isoniazid-resistant Mycobacterium tuberculosis MYC5165; assay type: functional
[4] = system: Mycobacterium tuberculosis; test: Ratio of CX1 MIC to compound MIC for isoniazid-resistant Mycobacterium tuberculosis MYC5165; assay type: functional
[5] = system: Mycobacterium tuberculosis; test: Ratio of streptomycin MIC to compound MIC for isoniazid-resistant Mycobacterium tuberculosis MYC5165; assay type: functional

| Structure (SMILES) | selectivity ratio [1] | MIC [2] | IC50 ([2]; read-out: IC50) | Ratio [3] | IC50 [2] | Ratio [4] | Ratio [5] |
| --- | --- | --- | --- | --- | --- | --- | --- |
| N=C(N)NCCc1ccc(OCc2ccccc2COc2ccc(CCNC(=N)N)cc2)cc1.O=C(O)C(F)(F)F | 45 | 3.1 µM | 900 nM | 4 |  |  |  |
| N=C(N)NCCc1cc2c(O)c(c1)Cc1cc(CCNC(=N)N)cc(c1O)Cc1cc(CCNC(=N)N)cc(c1O)Cc1cc(CCNC(=N)N)cc(c1O)C2 | > 256 | 0.8 µM (≈ 0.612 µg/mL) |  |  |  |  |  |
| O=C(O)c1cn(C2CC2)c2cc(N3CCNCC3)c(F)cc2c1=O [CIPROFLOXACIN] |  | 2.5 µM (≈ 0.828 µg/mL) |  |  | 1800 nM |  |  |
| N=C(N)NCCc1ccc(OCc2ccc(COc3ccc(CCNC(=N)N)cc3)cc2)cc1.O=C(O)C(F)(F)F | 38 | 0.8 µM | 200 nM | 60 |  | 16 |  |
| N=C(N)NCCc1ccc(OCc2cc(COc3ccc(CCNC(=N)N)cc3)c(COc3ccc(CCNC(=N)N)cc3)cc2COc2ccc(CCNC(=N)N)cc2)cc1.O=C(O)C(F)(F)F | 377 | 0.1 µM | 30 nM | >125 |  |  |  |
| NNC(=O)c1ccncc1 [ISONIAZID] | > 6 | 12.5 µM (≈ 1.71 µg/mL) | 650 nM |  |  |  |  |
| CN[C@@H]1[C@H](O[C@H]2[C@H](O[C@H]3[C@H](O)[C@@H](O)[C@H](N=C(N)N)[C@@H](O)[C@@H]3N=C(N)N)O[C@@H](C)[C@]2(O)C=O)O[C@@H](CO)[C@H](O)[C@H]1O [STREPTOMYCIN] |  | 2.7 µM (≈ 1.57 µg/mL) |  |  |  |  |  |
| N=C(N)NCCc1ccc(OCc2cc(COc3ccc(CCNC(=N)N)cc3)cc(COc3ccc(CCNC(=N)N)cc3)c2)cc1.O=C(O)C(F)(F)F | 198 | 0.2 µM |  | >125 |  |  | 4 |
| N=C(N)NCCc1ccc(OCc2cccc(COc3ccc(CCNC(=N)N)cc3)c2)cc1.O=C(O)C(F)(F)F | 62 | 0.8 µM | 300 nM | 16 |  | 16 |  |
